{"source": "patent US20250177329A1", "about": "“GPR120 AGONISTS FOR THE TREATMENT OF INFLAMMATORY BOWEL DISEASE” (Dompe' Farmaceutici SPA, priority 2022, published 2025)", "key": {"DSS-induced colitis": {"system": "DSS-induced colitis", "assay": "Mouse model of Dextran Sodium Sulfate-induced colitis", "format": "in vivo, female C57/B16 mice", "description": "A mouse model of colitis induced by administration of Dextran Sodium Sulfate (DSS) (Wirtz S. et al. Nature Protocols; Volume: 2, Issue: 3 Pages: 541-546; 2007) was used to study the therapeutic effect of oral administration of DFL23806 on colitis.\nIn details, 8- to 12-week-old female C57/B16 mice were subjected to 3 oral cycles of 2.5% Dextran Sodium Sulfate (DSS) in drinking water (molecular mass, 40 kDa; MP Biomedicals), each cycle characterized by 7 days of DSS administration followed by 7 days of filter-purified water.\nFrom day 3 of DSS administration, the mice were divided in 4 experimental groups, each receiving the treatment specified below: • Group 1: DSS (n=8)\nNo treatment, used as negative control. • Group 2: DSS+Vehicle (n=8)\nTreated with 20% v/v Dimethyl Sulfoxide (DMSO) and 80% v/v Phosphate Buffered Saline (PBS), 0.1 M, pH 8 (Vehicle), used as a negative control. • Group 3: DSS+DFL 90 mg/kg (n=8)\nTreated with DFL23806 dissolved in Vehicle, at the dosage of 90 mg/kg once a day. • Group 4: DSS+5-ASA 60 mg/kg (n=8)\nTreated with 5-aminosalicylic acid (5-ASA) in Vehicle, at the dosage of 60 mg/Kg once a day, used as reference positive control.\nVehicle, DFL23806 and 5-ASA were administered daily, in the morning, by oral gavage, using plastic sterile feeding tubes 20 ga×30 mm. All mice were sacrificed on day 39.\nA DAI score was established based on a scale that considers different parameters characterizing experimental colitis induction and progression (R S Walmsley et al. Gut 1998; 43:29-32).\nBody weight, presence of gross blood in the feces, and stool consistency were recorded every 2 days. In details, the DAI was determined at each time point by scoring changes in weight loss (0=none, 1=1%-5%, 2=5%-10%, 3=10%-20%, 4=>20%); stool consistency (0=normal, 2=loose, 4=diarrhea); and rectal bleeding (0=normal, 2=occult bleeding, 4=gross bleeding).\nMice were sacrificed at day 39, colon were collected and colon lengths measured for each mouse, as additional parameter of intestinal inflammation.\nThe day of sacrifice (day 39), mice were anesthetized with 2% isoflurane and subjected to endoscopy, to confirm the inflammatory grade. The experimental endoscopy setup, denoted “Coloview system”, consisted of a miniature endoscope (scope 1.9 mm outer diameter), a xenon light source, a triple chip camera, and an air pump (all from Karl Storz, Tuttlingen, Germany) to achieve regulated inflation of the mouse colon. The endoscopic procedure was viewed on a colour monitor and a modified murine endoscopic index score of colitis severity was assigned on the basis of colon translucency (0-3 points), granular features of the mucosa (0-3 points), morphology of the vascular pattern (0-4 points), and the presence of fibrin (0-4 points), as previously described by Dr. D'Alessio (D'Alessio, S. et al. J. Clin. Invest. 124, 3863-3878; 2014) leading to a cumulative score between 0 (no signs of inflammation) and […] (endoscopic signs of very severe inflammation).\nHistological analysis has been performed by an expert pathologist, in a blinded fashion, to grade the intestinal inflammation. More in details, colons of colitic mice in the various experimental groups have been evaluated for histological analyses using […] paraffin-embedded sections, stained with hematoxylin (Dako) and eosin (Diapath). A blinded pathologist evaluated the degree of inflammatory cell infiltration and mucosal damage, using the RACHMILEWITZ score (Table 1) (Rachmilewitz, D. et al. Gastroenterology 122, 1428-1441; 2002)."}, "GPR120": {"target": "T1, GPR120 (Mus musculus, UniProt Q7TMA4)", "T1 construct": "Colon lysates (˜900 μg proteins) from 6 mice of each experimental group were pooled; from tissue; host or cells: mouse colon (DSS colitis model)", "T1 sequence (Q7TMA4 1-361)": "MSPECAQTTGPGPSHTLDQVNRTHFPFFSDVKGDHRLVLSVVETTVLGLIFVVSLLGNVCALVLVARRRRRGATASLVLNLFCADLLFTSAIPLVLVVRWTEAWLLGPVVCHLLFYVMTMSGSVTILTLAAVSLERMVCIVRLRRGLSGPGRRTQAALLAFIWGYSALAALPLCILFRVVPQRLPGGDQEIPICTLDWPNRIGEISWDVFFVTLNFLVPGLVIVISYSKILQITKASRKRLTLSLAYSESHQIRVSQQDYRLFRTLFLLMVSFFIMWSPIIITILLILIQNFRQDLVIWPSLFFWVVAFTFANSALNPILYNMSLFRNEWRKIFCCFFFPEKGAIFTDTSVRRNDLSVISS", "assay": "Co-immunoprecipitation of β-arrestin 2 with GPR120 in colon lysates of DSS mice", "format": "in vivo", "method": "(§1) The efficiency of DFL in activating the GPR120 and/or GPR40 receptors was tested.\n(§2) Agonist-induced GPR120 can engage multiple signalling pathways to regulate distinct physiological outcomes. After ligand binding, B-arrestins, such as B-arrestin 2 can associate with the cytoplasmic domains of GPR120 and couple the receptor to specific downstream signaling pathways (FIG. 9). For this reason, we verified the agonist efficiency in activating GPR120 and GPR40 by immunoprecipitation. Colon lysates (˜900 μg proteins) from 6 mice of each experimental group were pooled, precleared with protein A/G plus-agarose (Santa Cruz) and then incubated with the antibody used for immunoprecipitation (anti-GPR120 or anti-GPR40, Abcam) at 4° C. for 16 h, followed by incubation with protein A/G plus-agarose for 5 h. The agarose beads were then collected by centrifugation, washed four times with lysis buffer, and heated to 95° C. for 5 min after adding Laemmli buffer. The resulting immunoprecipitates were separated by SDS-PAGE and probed with the anti-β-arrestin 2 antibody (Santa Cruz).\n(§3) Upon western blotting, a densitometric analysis of the blots was performed using Image J. FIGS. 10 and 11 show the ratio between co-immunoprecipitated β-arrestin 2 and GPR120 (FIG. 10) or GPR40 levels (FIG. 11) and the results of the blotting."}, "GPR40": {"target": "T2, GPR40 (Mus musculus, UniProt Q76JU9)", "T2 construct": "Colon lysates (˜900 μg proteins) from 6 mice of each experimental group were pooled; from tissue; host or cells: mouse colon (DSS colitis model)", "T2 sequence (Q76JU9 whole entry)": "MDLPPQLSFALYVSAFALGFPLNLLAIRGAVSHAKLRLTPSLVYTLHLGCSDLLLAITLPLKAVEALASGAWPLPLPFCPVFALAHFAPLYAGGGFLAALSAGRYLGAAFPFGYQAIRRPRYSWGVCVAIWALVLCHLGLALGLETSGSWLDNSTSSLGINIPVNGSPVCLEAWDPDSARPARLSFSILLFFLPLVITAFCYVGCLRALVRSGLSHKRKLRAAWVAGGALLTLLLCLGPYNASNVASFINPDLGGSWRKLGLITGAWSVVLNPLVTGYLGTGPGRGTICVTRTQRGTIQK", "assay": "Co-immunoprecipitation of β-arrestin 2 with GPR40 in colon lysates of DSS mice", "format": "in vivo", "conditions": "pooled colon lysates, day 39; compared to DSS or DSS+vehicle", "method": "as §1, §2, §3"}, "[1]": {"conditions": "DFL23806 90 mg/kg oral once a day, versus DSS and DSS+Vehicle groups, already at day 7"}, "[2]": {"conditions": "colon, day 39, DFL 90 mg/kg, 5-ASA 60 mg/kg, compared with DSS+Vehicle"}, "[3]": {"conditions": "day 39, DFL23806 90 mg/kg, 5-ASA 60 mg/kg oral once a day, compared to DSS and DSS+Vehicle"}}, "data": [{"smiles": "Cc1cc(F)cc(C)c1NS(=O)(=O)c1cccc(CCCCCCC(=O)O)c1", "note": "[DFL23806, 7-(3-(N-(4-fluoro-2,6-dimethylphenyl)sulfamoyl)phenyl)heptanoic acid]", "values": [{"measurement": "DAI (Disease Activity Index) score", "setting": "DSS-induced colitis; [1]", "result": "significant effect versus the controls"}, {"measurement": "percentage of body weight loss", "setting": "DSS-induced colitis; [1]", "result": "significant effect versus the controls"}, {"measurement": "body weight loss / DAI compared with 5-ASA", "setting": "DSS-induced colitis; DFL23806 90 mg/kg versus 5-ASA 60 mg/kg, at certain time points", "result": "even more effective than 5-ASA"}, {"measurement": "histological score (Rachmilewitz) for extent of flogosis", "setting": "DSS-induced colitis; [2]", "result": "significantly reduced the histological score"}, {"measurement": "histological score (Rachmilewitz) for extent of ulceration", "setting": "DSS-induced colitis; [2]", "result": "significantly reduced the histological score"}, {"measurement": "histological score (Rachmilewitz) for flogosis", "setting": "DSS-induced colitis; [2]", "result": "significantly reduced the histological score"}, {"measurement": "histological score (Rachmilewitz) for ulceration", "setting": "DSS-induced colitis; [2]", "result": "significantly reduced the histological score"}, {"measurement": "composite endoscopic score", "setting": "DSS-induced colitis; [3]", "result": "significantly inhibit chronic experimental colitis"}, {"measurement": "endoscopic score: colon thickness", "setting": "DSS-induced colitis; [3]", "result": "significantly inhibit chronic experimental colitis"}, {"measurement": "endoscopic score: mucosal surface granularity", "setting": "DSS-induced colitis; [3]", "result": "significantly inhibit chronic experimental colitis"}, {"measurement": "endoscopic score: vascular pattern", "setting": "DSS-induced colitis; [3]", "result": "significantly inhibit chronic experimental colitis"}, {"measurement": "endoscopic score: visible fibrin", "setting": "DSS-induced colitis; [3]", "result": "significantly inhibit chronic experimental colitis"}, {"measurement": "colon length", "setting": "DSS-induced colitis; day 39, DFL23806 90 mg/kg, 5-ASA 60 mg/kg oral once a day, compared to DSS+vehicle", "result": "significant inhibitory effect"}, {"measurement": "selectivity GPR120 versus GPR40", "setting": "GPR120; from β-arrestin 2 co-immunoprecipitation with GPR120 and GPR40", "result": "GPR120 selective agonist"}, {"measurement": "association between GPR120 and β-arrestin 2 (ratio co-immunoprecipitated β-arrestin 2 / GPR120)", "setting": "GPR120; pooled colon lysates, day 39, DFL 90 mg/kg, compared to control groups or DSS+5-ASA 60 mg/Kg", "result": "higher compared to control groups"}, {"measurement": "GPR40 and β-arrestin 2 association (ratio co-immunoprecipitated β-arrestin 2 / GPR40)", "setting": "GPR40", "result": "no increase"}]}]}
